Experimental data from patent US8993556B2, “Resorcinol derivatives as HSP90 inhibitors” (priority 2009, dated 2015).

Assays:
His-HSP90 N-term domain = assay: Determination of KD Via Biacore; type: binding; details: Biacore T100
Description: The evaluation of the binding affinity (KD) of the compounds of formula (I) to the HSP90 protein was done using Biacore T100.
His-HSP90 N-term domain was immobilized by capture of his tag by the Ab previously covalently bound to the chip (CM5) surface.
The compounds were analyzed using the following running buffer: 20 mM Tris/HCl pH 7.6, 150 mM KCl, 5 mM MgCl2, 0.05% P20 and 1% DMSO. The flow rate was 50 ul/min with and association time of 60 seconds.
The cpds were diluted in running buffer from 100× stock solution; the different conc injected were obtained from a sequential dilution in order to have the same DMSO conc. in each sample and avoid any solvent correction.

[1] = test system: A2780 human ovarian cells; assay: In Vitro Cell Proliferation Assay; type: cell-based; details: Homo sapiens, A2780, 72 h, read-out: A2780 Proliferation IC50 (μM)
Description: The cells were incubated at 37° C. and 5% CO2 and after 72 hours the plates were processed using CellTiter-Glo assay (Promega) following the manufacturer's instruction.
CellTiter-Glo is a homogenous method based on the quantification of the ATP present, an indicator of metabolically active cells. ATP is quantified using a system based on luciferase and D-luciferin resulting into light generation. The luminescent signal is proportional to the number of cells present in culture.
Briefly 25 μL/well reagent solution are added to each wells and after 5 minutes shacking microplates are red by a luminometer. The luminescent signal is proportional to the number of cells present in culture.

[2] = test system: human ovarian carcinoma cell line A2780 transplanted in immunodeficient mice; assay: In Vivo Antitumor Efficacy; parameters: species or system mouse; details: A2780 in athymic mice
Description: Antitumor activity of HSP90 inhibitors was assessed in vivo using the human ovarian carcinoma cell line A2780 transplanted in immunodeficient mice.
Balb Nu/Nu, male mice, (athymic mice) from Harlan, Italy, were maintained in cages with paper filter covers, food and bedding sterilized and water acidified. A2780 tumors were maintained in vivo by serial transplantation and, at the time of efficacy experiments, implanted subcutaneously in athymic mice. The treatments started 8 days later when the tumors were palpable. HSP90 inhibitors were prepared immediately before use and administered intravenously in a volume of 10 ml/kg at different doses.
Tumor growth was assessed by caliper. The two diameters were recorded, and the tumor weight was calculated according to the following formula: length (mm)×width^2 (mm)/2. The effect of the antitumor treatment was determined as tumor growth inhibition (TGI %) of treated group respect to vehicle treated controls.

in vivo = details: Mouse Balb Nu/Nu, single
Description: Calibration Standards and Quality Controls were prepared spiking blank mouse plasma with appropriate working solutions.
Sample plasma proteins were precipitated by adding 160 μL of acetonitrile/methanol 90/10 to 20 μL of mouse plasma in a 96 well plate.
After heat sealing and mixing for 3 minutes, the plate was centrifuged for 15 minutes at 4000 rpm.
The supernatant was considered as final extract and injected onto the LC-MS-MS system.
• UPLC system: Waters Acquity BSM • Mobile phase A: 95:5-5 mM Ammonium Formate pH3.5: Acetonitrile • Mobile phase B: 5:95-5 mM Ammonium Formate pH3.5: Acetonitrile • Analytical column: BEH C18 50×2.1 1.7 μm • Elution conditions:
• Total Run Time: 2.0 min. • Flow rate: 0.500 mL/min • Approximate retention time: NMS-03308086: 0.67 min. • Column oven temp: 40° C. • Autosampler type: Waters Acquity SM • Injection volume: 3 μL • Injection mode: Partial Loop with Needle Overfill • Autosampler temperature: 5° C. • MS instrument: Waters TQD • Ionisation: ES+ • Capillary: 1.5 kV • Cone: 70 V • Source Temperature: 150° C. • Desolvation Flow and Temp.: 900 L/h-400° C. • Collision Gas Flow: 0.2 mL/min • Collision Energy: 40 • MRM transitions: NMS-03308086: m/z 579.1>m/z 97.0 • Dwell Time: 0.1 seconds • LLOQ: 5.0 ng/mL • ULOQ: 5000 ng/mL • Software used: Mass Lynx 4.1 SCN627

[3] = test system: Her2 protein levels in BT474 breast cancer cells; assay: Her2 Degradation Assay; type: cell-based; details: Homo sapiens, BT-474, 8 h, read-out: Her2 Degradation IC50 (μM)
Description: The potencies of the compounds of the present invention were evaluated by measuring the Her2 degradation as a marker for HSP90 inhibition.
HSP90 is a key component of a chaperone machinery that catalyzes the folding and quality control of several proteins. Its inhibition impairs the capacity to fold or stabilize its client proteins, leading to the proteosomal dependent degradation of these unfolded proteins. […] Cellular activity of HSP90 inhibitors was assessed by measuring the induced loss of Her2 protein levels in BT474 breast cancer cells (ATCC #HTB-20). Cellular Her2 levels were measured by immunocytochemistry, and quantified using an ArrayScan vTi instrument (Cellomics Thermo Scientific).
Cellular activity of HSP90 inhibitors was assessed by measuring the induced loss of Her2 protein levels in BT474 breast cancer cells (ATCC #HTB-20). Cellular Her2 levels were measured by immunocytochemistry, and quantified using an ArrayScan vTi instrument (Cellomics Thermo Scientific).
Studies were performed as follows: 5000 cells/well are seeded in 96 well plates (Perkin Elmer) in DMEM/5% FCS and incubated for 48 hours at 37° C., 5% CO2.
Medium is then replaced with fresh medium containing test compounds at the required concentration. Concentration curves are prepared in DMEM/10% FCS from compound stocks in DMSO, and final DMSO concentration is 0.1% (v/v). Duplicate wells for each concentration point are prepared, with a typical highest compound concentration of 30 μM. […] Plates are incubated for 20 minutes at room temperature, then wells are washed in PBS and cells permiabilised by incubating with PBS containing 0.3% Triton X-100 for 15 minutes at room temperature. Non-specific binding sites are blocked by incubating wells for 1 hour in PBS containing 3% (w/v) BSA. Wells are then incubated for 1 hour at room temperature in PBS containing anti Her2 mouse monoclonal (Anti-c-ErbB2/c-Neu, Mouse mAb 3B5, Calbiochem Cat N^o OP15) diluted 1:100 in 1% (w/v) BSA. […] After washing a further 3 times in PBS, cellular Her2 immunoreactivity is assessed using the ArrayScan vTi instrument, with a Zeiss 10× 0.5 N.A. objective, and applying the Cytotoxity.V3 algorithm (Cellomics/Thermo Fisher) with a XF100 filter. At least 10 fields, corresponding to at least 900 cells, are read for each well.
IC50 is the response; IC50 starts at Bottom and goes to Top with a sigmoid shape. In Vitro Cell Proliferation Assay

SMILES	Kd (His-HSP90 N-term domain) [nM]	IC50 [1] [µM]	TGI ([2]; intravenously at 40 mkg/kg every three days) [%]	clearance (in vivo; 10 mg/kg IV bolus, read-out: CL (mL/h/kg) Plasma clearance (converted)) [mL/h/kg]	half-life (in vivo; 10 mg/kg IV bolus, read-out: T1/2 (h) Terminal half-life (converted)) [h]	Vd (in vivo; 10 mg/kg IV bolus, read-out: Vdss (mL/kg) Volume of distribution at steady state) [mL/kg]	bioavailability (in vivo; 10 mg/kg oral vs 10 mg/kg IV, read-out: F % Oral bioavailability) [%]	IC50 [3] [µM]	TGI ([2]; intravenously at 30 mg/Kg daily) [%]
CN1CCC(NC(=O)c2cc(-c3c(O)cc(O)cc3Oc3ccc(N(C)C)cc3)no2)CC1 [3-{2-[4-(Dimethylamino)phenoxy]-4,6-dihydroxyphenyl}-N-(1-methylpiperidin-4-yl)isoxazole-5-carboxamide]	0.066	0.03	88	3430	5.12	12500	25	0.008	
CN(C)c1ccc(Oc2cc(O)cc(O)c2-c2cc(C(=O)NC3CCN(C4CCC5(CC4)OCCCO5)CC3)no2)cc1 [5-{2-[4-(Dimethylamino)phenoxy]-4,6-dihydroxyphenyl}-N-[1-(1,5-dioxaspiro[5.5]undec-9-yl)piperidin-4-yl]isoxazole-3-carboxamide]	0.079	0.021						0.038	92
